Several values for one entry are separate records, joined by “and”; a condition that tells them apart may be missing. Identical values can stand only once. Like-named read-outs stand apart in the source and are kept apart here.
What was measured:
[1] = molecular target: Bovine brain microtubule protein (MTP, tubulin and microtubule-associated proteins) (Bos taurus, UniProt Q6B856); assay: Inhibition of microtubule polymerization; type: biochemical; details: for reduction of microtubule polymer mass: 100 nmol/L compound
[2] = molecular target: MAP-free bovine brain microtubules (Bos taurus, UniProt Q6B856); assay: Microtubule dynamic instability at plus ends; type: biochemical; details: for Dynamicity, Percent Change (suppression of dynamic instability): 0.1 μmol/L (100 nmol/L) compound vs control; for Dynamicity, Percent Change (suppression of dynamic instability) / Catastrophe Frequency, Percent Change / Growing Lengths, Percent Change / Percent Time Shortening, Percent Change / Rescue Frequency, Percent Change / Shortening Lengths, Percent Change / Shortening Rates, Percent Change / Growing Rates, Percent Change / Percent Time Growing, Percent Change: (−) decrease; for Catastrophe Frequency / Dynamicity / Percent Time Attenuated / Percent Time Growing / Percent Time Shortening / Rescue Frequency / Growing Lengths / Shortening Lengths / Shortening Rates / Growing Rates: 0.1 μmol/L compound; for Percent Time Attenuated (pause), Percent Change / Catastrophe Frequency, Percent Change / Growing Lengths, Percent Change / Percent Time Shortening, Percent Change / Rescue Frequency, Percent Change / Shortening Lengths, Percent Change / Shortening Rates, Percent Change / Growing Rates, Percent Change / Percent Time Growing, Percent Change: 0.1 μmol/L compound vs control; for Percent Time Attenuated (pause), Percent Change / Growing Rates, Percent Change / Percent Time Growing, Percent Change: (+) increase; for Growing Lengths / Shortening Lengths / Shortening Rates / Growing Rates: mean ± SEM; for Growing Rates: plus ends, steady state
[3] = molecular target: soluble bovine brain tubulin (Bos taurus, UniProt Q6B856); assay: Binding to soluble tubulin
[4] = test system: Bovine brain microtubule protein (MTP); assay: Electron microscopy of polymers formed; type: biochemical
rat brain tubulin = details: read-out: KD for tubulin reported previously; cited from earlier work
[5] = molecular target: steady-state microtubules (MAP-rich); assay: Binding of [3H]S-methyl DM1 to steady-state microtubules; design: species or system bovine
microtubules [6] = details: cited from earlier work
microtubules [7] = details: cited from earlier work; remark: listed apart in the source
metastatic breast cancer = details: Phase II, patients with metastatic breast cancer; cited from earlier work
[8] = 20 μmol/L compound (maytansine: 4 μmol/L and 20 μmol/L)

soluble bovine brain tubulin, sequence (P81947 whole entry): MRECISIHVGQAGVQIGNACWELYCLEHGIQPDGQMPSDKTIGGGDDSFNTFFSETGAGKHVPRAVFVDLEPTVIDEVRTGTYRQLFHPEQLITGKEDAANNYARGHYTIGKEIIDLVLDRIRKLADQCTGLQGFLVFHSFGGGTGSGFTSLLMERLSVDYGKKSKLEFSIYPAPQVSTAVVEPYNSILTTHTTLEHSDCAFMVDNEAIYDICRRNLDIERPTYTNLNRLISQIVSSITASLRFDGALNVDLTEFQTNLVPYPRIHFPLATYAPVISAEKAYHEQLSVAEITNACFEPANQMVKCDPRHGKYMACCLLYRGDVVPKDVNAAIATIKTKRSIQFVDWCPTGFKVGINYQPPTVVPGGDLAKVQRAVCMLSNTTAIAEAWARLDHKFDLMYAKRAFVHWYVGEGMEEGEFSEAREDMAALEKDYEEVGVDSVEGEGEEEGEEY
soluble bovine brain tubulin, sequence (Q6B856 whole entry): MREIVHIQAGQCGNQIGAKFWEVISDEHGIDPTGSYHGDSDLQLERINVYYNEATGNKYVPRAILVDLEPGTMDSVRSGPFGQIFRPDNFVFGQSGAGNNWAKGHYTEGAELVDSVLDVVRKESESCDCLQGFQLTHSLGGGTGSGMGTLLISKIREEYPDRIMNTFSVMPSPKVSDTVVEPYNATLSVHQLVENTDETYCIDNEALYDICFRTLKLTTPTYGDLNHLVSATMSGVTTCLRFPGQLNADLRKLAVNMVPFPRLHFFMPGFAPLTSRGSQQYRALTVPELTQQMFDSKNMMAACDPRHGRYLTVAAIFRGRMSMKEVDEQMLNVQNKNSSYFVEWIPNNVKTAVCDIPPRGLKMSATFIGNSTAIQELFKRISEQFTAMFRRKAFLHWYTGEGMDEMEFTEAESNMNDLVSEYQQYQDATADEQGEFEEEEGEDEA
Bovine brain microtubule protein (MTP, tubulin and microtubule-associated proteins), sequence (P81947 whole entry): as the sequence (P81947 whole entry) above
Bovine brain microtubule protein (MTP, tubulin and microtubule-associated proteins), sequence (Q6B856 whole entry): as the sequence (Q6B856 whole entry) above
MAP-free bovine brain microtubules, sequence (Q6B856 whole entry): as above
MAP-free bovine brain microtubules, sequence (P81947 whole entry partner): as the sequence (P81947 whole entry) above

| Compound | Dynamicity, Percent Change (suppression of dynamic instability) [2] | Catastrophe Frequency [2] [per min] | Dynamicity [2] | Percent Time Attenuated [2] [%] | Percent Time Growing [2] [%] | Percent Time Shortening [2] [%] | Rescue Frequency [2] [per min] | Percent Time Attenuated (pause), Percent Change [2] | Catastrophe Frequency, Percent Change [2] | Growing Lengths, Percent Change [2] | Percent Time Shortening, Percent Change [2] | Rescue Frequency, Percent Change [2] | Shortening Lengths, Percent Change [2] | Shortening Rates, Percent Change [2] | Growing Rates, Percent Change [2] | Percent Time Growing, Percent Change [2] | Growing Lengths [2] [μm/event] | Shortening Lengths [2] [μm/event] | Shortening Rates [2] [μm/min] | Growing Rates [2] [μm/min] | further results |
| --- | --- | --- | --- | --- | --- | --- | --- | --- | --- | --- | --- | --- | --- | --- | --- | --- | --- | --- | --- | --- | --- |
| COc1cc2cc(c1Cl)N(C)C(=O)C[C@H](OC(=O)[C@H](C)N(C)C(C)=O)[C@]1(C)O[C@H]1[C@H](C)[C@@H]1C[C@@](O)(NC(=O)O1)[C@H](OC)/C=C/C=C(\C)C2 [Maytansine, reference compound] | 45 (−) % | 0.21 | 0.72 | 65 | 24 | 11 | 0.60 | 5 (+) % | 30 (−) % | 37 (−) % | 26 (−) % | 40% and 40 (−) % | 40 (−) % | 35% and 35 (−) % | 35% and 35 (−) % | 3.4 (+) % | 1.2 ± 0.1 | 1.8 ± 0.9 | 5.8 ± 0.5 | 1.1 ± 0.2 | inhibition at 0.1 µM ([1]; read-out: reduction of microtubule polymer mass): 20%; Dynamicity, Percent Change (suppression of dynamic instability) ([2]; listed as maytansine): 45%; Percent Time Attenuated (pause), Percent Change ([2]; listed as maytansine): negligible effect; Catastrophe Frequency, Percent Change ([2]; listed as maytansine): 30%; Shortening Lengths, Percent Change ([2]; listed as maytansine): 40%; Kd [3]: 860 ± 200 nM; polymer morphology by electron microscopy ([4]; 2 μmol/L compound): very few microtubules and no aggregates; polymer morphology by electron microscopy [4, 8]: no microtubules or aggregates; Kd (rat brain tubulin): 700 nM |
| COc1cc2cc(c1Cl)N(C)C(=O)C[C@H](OC(=O)[C@H](C)N(C)C(=O)CCSC)[C@]1(C)O[C@H]1[C@H](C)[C@@H]1C[C@@](O)(NC(=O)O1)[C@H](OC)/C=C/C=C(\C)C2 [S-methyl DM1, N^2'-deacetyl-N^2'-(3-thiomethyl-1-oxopropyl)-maytansine] | 84% and 84 (−) % | 0.03 | 0.21 | 87.4 | 7.3 | 5.4 | 0.56 | 41% and 41 (+) % | 90% and 90 (−) % | 47 (−) % | 64 (−) % | 44 (−) % | 60% and 60 (−) % | 70% and 70 (−) % | 24 (−) % | 70 (−) % | 1 ± 0.1 | 1.2 ± 0.2 | 2.7 ± 0.9 | 1.3 ± 0.4 | reduction of microtubule polymer mass [1]: less than 3%; concentration showing nearly complete inhibition of microtubule polymerization ([1]; MTP 3 mg/mL, 30°C): 20 µmol/L; suppression of dynamicity (change) ([2]; 20 nmol/L, data not shown): ~ 6%; Kd ([3]; read-out: equilibrium dissociation constant (KD) for soluble tubulin, 3 μmol/L tubulin, PEM buffer, 45 min, 30°C): 930 nM and 900 nM; KD of low affinity sites, fold higher than high affinity sites [5]: 20 fold; binding to high affinity sites on microtubules, fold more strongly than vinblastine [5]: 20 fold and 19 fold; number of low affinity sites [5]: several hundred; molecules bound per microtubule ([5]; 0.1 μmol/L (100 nmol/L)): 19 ± 1 and 19; mean length of the microtubules ([5]; 500 nmol/L – 4 μmol/L, standard deviation 4.5 μm): 13.9–14.1 μm; molecules bound per microtubule or sedimentable aggregate ([5]; 1 μmol/L): approximately 105; molecules bound per microtubule or sedimentable aggregate ([5]; 4 μmol/L): 210 ± 37 and ~210; number of high affinity sites per microtubule ([5]; Scatchard X-intercept): 37; mean length of the microtubules ([5]; between 0 and 100 nmol/L, maximum standard deviation 4 μm): 14.4–14.5 μm; molecules bound to sedimentable polymer, per microtubule ([5]; concentrations ≥500 nmol/L): 60–210; decrease of microtubule polymer mass ([5]; pre-assembled MAP-rich microtubules, 1 h, any concentration (0 – 4 μM)): less than 4%; Kd ([5]; read-out: KD, high affinity sites on microtubules, low drug concentrations (10 nmol/L – 100 nmol/L)): 100 ± 50 nM; Kd ([5]; read-out: KD, low affinity sites on microtubules and sedimentable aggregates, higher drug concentrations (0.1 μmol/L to 4 μmol/L)): 2200 ± 200 nM; concentrations inducing tubulin aggregates detectable by electron microscopy [4]: ≥ 2 µmol/L; polymer morphology by electron microscopy ([4]; 2 μmol/L compound): a small number of small aggregates along with the microtubules; polymer morphology by electron microscopy [4, 8]: an increase in aggregate formation |
| COc1cc2cc(c1Cl)N(C)C(=O)C[C@H](OC(=O)[C@H](C)N(C)C(=O)CCC(C)(C)SC)[C@]1(C)O[C@H]1[C@H](C)[C@@H]1C[C@@](O)(NC(=O)O1)[C@H](OC)/C=C/C=C(\C)C2 [S-methyl DM4, N^2'-deacetyl-N^2'-(4-thiomethyl-4-methyl-1-oxopentyl)-maytansine] | 73% and 73 (−) % | 0.03 | 0.35 | 80.6 | 15.2 | 4.2 | 0.50 | 30% and 30 (+) % | 90% and 90 (−) % | 16 (−) % | 72 (−) % | 50 (−) % | 60% and 60 (−) % | 56% and 56 (−) % | 24 (−) % | 34 (−) % | 1.6 ± 0.1 | 1.2 ± 0.2 | 3.9 ± 0.4 | 1.3 ± 0.3 | reduction of microtubule polymer mass [1]: less than 3%; plateau inhibition of polymerization ([1]; between 10 μmol/L and 20 μmol/L): 75%; plateau of sedimentable polymer, % of the control polymer mass ([1]; between 10 and 20 μmol/L): 25%; concentrations inducing tubulin aggregates detectable by electron microscopy [4]: ≥ 2 µmol/L; polymer morphology by electron microscopy ([4]; 2 μmol/L compound): aggregates as well as both normal and also some imperfect, ragged microtubules with loose protofilamentous structure; polymer morphology by electron microscopy [4, 8]: more extensive aggregation of tubulin occurred with no intact microtubules |
| C=C1C[C@@H]2CC[C@@]34C[C@H]5O[C@H]6[C@@H](O3)[C@H]3O[C@H](CC[C@@H]3O[C@H]6[C@H]5O4)CC(=O)C[C@@H]3[C@@H](OC)[C@@H](C[C@H](O)CN)O[C@H]3C[C@H]3O[C@@H](CC[C@@H]1O2)C[C@@H](C)C3=C [eribulin] |  |  |  |  |  |  |  |  |  |  |  |  |  |  |  |  |  |  |  |  | high affinity binding sites per microtubule (microtubules [6]): 14.7 ±1.3 |
| CC[C@]1(O)C[C@@H]2CN(CCc3c([nH]c4ccccc34)[C@@](C(=O)OC)(c3cc4c(cc3OC)N(C)[C@H]3[C@@](O)(C(=O)OC)[C@H](OC(C)=O)[C@]5(CC)C=CCN6CC[C@]43[C@@H]65)C2)C1 [vinblastine] |  |  |  |  |  |  |  |  |  |  |  |  |  |  |  |  |  |  |  |  | high affinity binding sites per microtubule (microtubules [6]): 16.8 ± 4.3; suppression of catastrophe frequency (microtubules [7]; 100 nmol/L): ~ 30%; suppression of growth rate (microtubules [7]; 100 nmol/L): 34%; suppression of shortening rate (microtubules [7]; 100 nmol/L): 47%; enhancement of rescue frequency (microtubules [7]): ~ 200% |
| trastuzumab-DM1 |  |  |  |  |  |  |  |  |  |  |  |  |  |  |  |  |  |  |  |  | interim overall response rate (metastatic breast cancer): 39% |

From publication PMC2954514 (Molecular cancer therapeutics, 2010)
